Results taken from article PMC4000009, “Ardisia crispa roots inhibit cyclooxygenase and suppress angiogenesis” (BMC Complementary and Alternative Medicine, 2014).

Experiments:
[1] = system: VEGF-induced blood vessel formation; assay: Mouse sponge implantation assay (VEGF-impregnated gelatin sponge, mean vascular density); assay type: in vivo; conditions: 100 ng treatment in VEGF sponge, 14 days; relative to VEGF group
Procedure: Prior to experimentation, absorbable gelatin sponge was cut (5 mm × 8 mm) and hydrated in sterile PBS overnight at 4°C. […] The sponges were allowed to solidify at room temperature for one hour before commencement of the experiment. Mice were anesthetized with Avertin (10 mL/kg) prior to experimentation. Hardened gel piece was inserted into incised subcutaneous pocket created laterally. The animals were allowed to recuperate for 14 days. After that, the animals were euthanized and the gel piece was harvested and rinsed with normal saline.
The sponge samples were fixed in 10% formalin (v/v) for 7 days and subjected to histopathological analysis. The number of vessels was counted in 15 consecutive fields using a 20X objective and the mean MVD was calculated [19].
In mouse sponge implantation assay, statistical analysis was performed using SPSS version 16. One-way Analysis of Variance (ANOVA) with post-hoc test of Least Significant Difference (LSD) were utilised with P < 0.05 was considered to be statistically significant. The results were reported as mean ± SEM. […] Data were reported as mean ± SEM.

[2] = biological target: T1, Soybean lipoxygenase type I-B (Glycine max, UniProt P08170); assay: Soy lipoxygenase inhibitory assay; assay type: biochemical
T1 construct: purchased Sigma Aldrich
T1 sequence (P08170 1-839): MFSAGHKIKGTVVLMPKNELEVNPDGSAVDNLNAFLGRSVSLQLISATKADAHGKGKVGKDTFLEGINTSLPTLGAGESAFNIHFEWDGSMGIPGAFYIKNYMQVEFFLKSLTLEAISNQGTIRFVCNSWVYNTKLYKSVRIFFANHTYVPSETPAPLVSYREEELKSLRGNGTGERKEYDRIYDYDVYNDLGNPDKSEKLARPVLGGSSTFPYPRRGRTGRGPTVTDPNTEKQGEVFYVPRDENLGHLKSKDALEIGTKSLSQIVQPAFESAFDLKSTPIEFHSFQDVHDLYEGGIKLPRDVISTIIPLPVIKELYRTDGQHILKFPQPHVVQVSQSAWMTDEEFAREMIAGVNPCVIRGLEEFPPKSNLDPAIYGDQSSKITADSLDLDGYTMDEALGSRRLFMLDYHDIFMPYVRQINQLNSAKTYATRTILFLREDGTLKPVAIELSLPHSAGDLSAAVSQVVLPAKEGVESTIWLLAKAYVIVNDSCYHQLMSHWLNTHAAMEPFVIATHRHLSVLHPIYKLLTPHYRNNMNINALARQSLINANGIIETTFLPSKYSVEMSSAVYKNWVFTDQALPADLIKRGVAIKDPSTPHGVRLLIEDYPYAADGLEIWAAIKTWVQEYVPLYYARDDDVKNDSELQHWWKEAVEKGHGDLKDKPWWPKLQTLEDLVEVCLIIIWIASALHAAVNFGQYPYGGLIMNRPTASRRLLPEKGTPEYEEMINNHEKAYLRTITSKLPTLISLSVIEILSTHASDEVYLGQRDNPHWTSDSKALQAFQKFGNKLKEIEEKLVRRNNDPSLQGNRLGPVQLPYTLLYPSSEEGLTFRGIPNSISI
Procedure: Soy lipoxygenase inhibitory assay was performed according to the method proposed by Azhar-Ul-Haq et al.. Rutin was used as positive control. 160 μl of 100 mM sodium phosphate buffer (pH8.0), 10 μl of ACRH and QRF were dissolved in ethanol in different concentrations (200 μg/mL, 100 μg/mL, 50 μg/mL, 25 μg/mL, and 12.5 μg/mL) and 20 μl of lipoxygenase solution were mixed in the well and incubated for 10 mins at room temperature. The reaction was then initiated by adding 10 μl of linoleic solution and the absorbance was determined at 234 nm after 6 minutes. All concentrations were performed in triplicate. The IC50 value was then calculated.
(§1) In mouse sponge implantation assay, statistical analysis was performed using SPSS version 16. One-way Analysis of Variance (ANOVA) with post-hoc test of Least Significant Difference (LSD) were utilised with P < 0.05 was considered to be statistically significant. The results were reported as mean ± SEM. For in vitro studies, average of the results obtained was determined in order to construct a graph, whereby IC50 of each groups were identified, respectively. IC50 was calculated using GraphPad Prism 5 software. Data were reported as mean ± SEM.

[3] = biological target: T2, COX-2 (Ovis aries, UniProt P79208); assay: Colorimetric COX (ovine) inhibitor screening assay, COX-2; assay type: biochemical; conditions: read-out: Percentage of COX inhibition (%) COX-2
T2 construct: purchased Cayman 760111
T2 sequence (P79208 17-603): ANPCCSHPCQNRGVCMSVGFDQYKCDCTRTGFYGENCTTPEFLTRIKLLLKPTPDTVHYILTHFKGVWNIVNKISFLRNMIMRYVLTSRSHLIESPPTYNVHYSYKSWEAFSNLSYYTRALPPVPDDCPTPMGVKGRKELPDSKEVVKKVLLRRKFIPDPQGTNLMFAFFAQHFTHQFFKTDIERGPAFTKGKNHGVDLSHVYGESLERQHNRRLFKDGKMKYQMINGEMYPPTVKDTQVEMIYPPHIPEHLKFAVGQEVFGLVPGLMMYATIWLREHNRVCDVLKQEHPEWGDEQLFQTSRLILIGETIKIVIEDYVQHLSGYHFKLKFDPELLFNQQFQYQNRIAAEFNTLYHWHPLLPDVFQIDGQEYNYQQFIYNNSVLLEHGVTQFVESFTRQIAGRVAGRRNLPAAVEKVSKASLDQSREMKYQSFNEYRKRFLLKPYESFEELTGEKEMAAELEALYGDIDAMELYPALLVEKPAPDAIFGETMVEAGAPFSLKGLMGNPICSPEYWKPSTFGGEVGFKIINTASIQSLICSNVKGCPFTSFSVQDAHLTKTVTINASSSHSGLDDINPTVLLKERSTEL
Procedure: (§2) Cyclooxygenase activity assay was performed according to Yang et al., with slight modification. […] The assay was conducted by monitoring the appearance of oxidized N, N, N’, N’- tetramethyl-p-phenediamine (TMPD) at […]. […] The plate was shaken for a few seconds and incubated for 5 min at 25°C. 20 μl of the colorimetric substrate solution (TMPD) was added to all of the wells. 20 μl of arachidonic acid was added to all the wells. The plate was shaken for a few seconds and incubated for 5 min at 25°C. The absorbance was measured at 590 nm using a microplate reader. Average absorbance was calculated for all the samples (n = 3) in order to determine the percentage of inhibition. The calculation of inhibitory percentage is as portrayed below:
(§3) %inhibition=100%initialactivity‒inhibitorwells/100%initialactivity×100
as §1

[4] = biological target: T3, COX-1 (Ovis aries, UniProt P05979); assay: Colorimetric COX (ovine) inhibitor screening assay, COX-1; assay type: biochemical; conditions: n = 3
T3 construct: purchased Cayman 760111
T3 sequence (P05979 25-600): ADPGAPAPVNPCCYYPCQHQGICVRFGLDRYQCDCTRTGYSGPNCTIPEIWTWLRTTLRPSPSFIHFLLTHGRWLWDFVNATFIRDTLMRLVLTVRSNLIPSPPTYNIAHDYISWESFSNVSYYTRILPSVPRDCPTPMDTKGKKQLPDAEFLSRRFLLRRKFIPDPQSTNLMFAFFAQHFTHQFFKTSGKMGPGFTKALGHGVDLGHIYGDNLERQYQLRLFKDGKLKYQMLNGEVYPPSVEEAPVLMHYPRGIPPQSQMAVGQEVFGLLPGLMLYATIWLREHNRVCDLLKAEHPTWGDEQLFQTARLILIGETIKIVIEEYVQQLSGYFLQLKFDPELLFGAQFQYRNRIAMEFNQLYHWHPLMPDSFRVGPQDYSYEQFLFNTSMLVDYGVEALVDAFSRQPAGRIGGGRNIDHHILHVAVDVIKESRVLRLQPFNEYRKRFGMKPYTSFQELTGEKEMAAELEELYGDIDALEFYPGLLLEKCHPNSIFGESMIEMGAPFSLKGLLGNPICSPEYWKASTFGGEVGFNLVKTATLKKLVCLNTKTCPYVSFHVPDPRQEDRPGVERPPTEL
Procedure: as §2, §3, §1

Structure (SMILES)	% inhibition (of MVD) [1] [%]	IC50 [2] [µM]	inhibition at 12.5 µg/mL [3] [%]	inhibition at 25 µg/mL [3] [%]	inhibition at 50 µg/mL [3] [%]	inhibition at 100 µg/mL [3] [%]	inhibition at 200 µg/mL [3] [%]	Percentage of COX inhibition (%) COX-1 ([4]; 12.5 μg/ml) [%]	Percentage of COX inhibition (%) COX-1 ([4]; 25 μg/ml) [%]	Percentage of COX inhibition (%) COX-1 ([4]; 50 μg/ml) [%]	Percentage of COX inhibition (%) COX-1 ([4]; 100 μg/ml) [%]	Percentage of COX inhibition (%) COX-1 ([4]; 200 μg/ml) [%]
CC1(C)Cc2c(-c3ccccc3)c(-c3ccc(Cl)cc3)c(CC(=O)O)n2C1 [licofelone]	67.14											
C[C@@H]1O[C@@H](OC[C@H]2O[C@@H](Oc3c(-c4ccc(O)c(O)c4)oc4cc(O)cc(O)c4c3=O)[C@H](O)[C@@H](O)[C@@H]2O)[C@H](O)[C@H](O)[C@H]1O [Rutin]		72.7										
CC(=O)Oc1ccccc1C(=O)O [Aspirin]		763	33.9 ± 1.07	51.38 ± 0.154	54.29 ± 0.307	59.05 ± 0.153	62.42 ± 0.154	27.778 ± 0.505	36.027 ± 1.347	37.879 ± 0.842	40.067 ± 1.347	46.465 ± 0.505
